Source: ChEMBL document CHEMBL1201862, “PubChem BioAssay data set” (2004)
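Following 48 hours of exposure in 96-well plates, responses at five concentrations were used to interpolate endpoints linearly. GI50 marks 50% less growth.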 The source made the active and inactive calls. No stated cut-off is given here; in the data, active = GI50 up to about 1.1 µM and inactive = higher.

Experiments:
Assay in all cases: inhibition of tumour cell growth, NCI panel, 48 h
[1] = system: A549
[2] = system: CAKI-1
[3] = system: COLO 205
[4] = system: HOP-62
[5] = system: HT-29
[6] = system: IGROV-1
[7] = system: MOLT-4
[8] = system: Malme-3M
[9] = system: NCI-H226
[10] = system: NCI-H23
[11] = system: NCI-H522
[12] = system: OVCAR-5
[13] = system: RPMI-8226
[14] = system: SF-295
[15] = system: SK-MEL-28
[16] = system: SK-OV-3
[17] = system: SNB-75
[18] = system: SW-620
[19] = system: UO-31
[20] = system: 786-0

SMILES | GI50 [1] | GI50 [2] | GI50 [3] | GI50 [4] | GI50 [5] | GI50 [6] | GI50 [7] | GI50 [8] | GI50 [9] | GI50 [10] | GI50 [11] | GI50 [12] | GI50 [13] | GI50 [14] | GI50 [15] | GI50 [16] | GI50 [17] | GI50 [18] | GI50 [19] | GI50 [20]
C/C(=C/c1c(C)[nH]c(=O)[nH]c1=O)C(=O)O | > 1370 µM (inactive) | > 1370 µM (inactive) | > 1370 µM (inactive) | > 1370 µM (inactive) | > 1370 µM (inactive) | > 1370 µM (inactive) | > 1370 µM (inactive) | > 1370 µM (inactive) | > 1370 µM (inactive) | > 1370 µM (inactive) | > 1370 µM (inactive) | > 1260 µM (inactive) | > 1370 µM (inactive) | > 1370 µM (inactive) | > 1370 µM (inactive) | > 1370 µM (inactive) | > 1370 µM (inactive) | > 1370 µM (inactive) | > 1370 µM (inactive) | 
Cc1cccc(C)c1NC(=O)C(=O)C1C(=O)N(c2ccccc2)N=C1N (centres undefined) | > 100 µM (inactive) | > 100 µM (inactive) | > 100 µM (inactive) | > 100 µM (inactive) | > 100 µM (inactive) | > 100 µM (inactive) | > 100 µM (inactive) | > 100 µM (inactive) | > 100 µM (inactive) | > 100 µM (inactive) | > 100 µM (inactive) | > 100 µM (inactive) | > 100 µM (inactive) | > 100 µM (inactive) | > 100 µM (inactive) | > 100 µM (inactive) | 94.4 µM (inactive) | > 100 µM (inactive) | > 100 µM (inactive) | > 100 µM (inactive)
O=C1C=C(Br)c2c(-c3ccccc3)oc3cccc1c23 | > 81.5 µM (inactive) | > 76.9 µM (inactive) | > 63.1 µM (inactive) | 34.4 µM (inactive) | > 63.4 µM (inactive) | 32.3 µM (inactive) | > 41.5 µM (inactive) | 72.3 µM (inactive) | > 80.9 µM (inactive) | > 52.6 µM (inactive) | 31.6 µM (inactive) | > 100 µM (inactive) | > 39.3 µM (inactive) | 22.9 µM (inactive) | > 93.5 µM (inactive) | 54.1 µM (inactive) | 5.45 µM (inactive) | > 100 µM (inactive) | > 61.2 µM (inactive) | 51.8 µM (inactive)
Cc1ccc([N+](=O)[O-])cc1S(=O)(=O)Nc1ccc(C2=NN(c3ccc([N+](=O)[O-])cc3[N+](=O)[O-])C(c3ccccc3)C2)cc1 (centres undefined) | 19.1 µM (inactive) | 22.8 µM (inactive) | 19.2 µM (inactive) | 15.5 µM (inactive) | 16.1 µM (inactive) | 16.6 µM (inactive) | 16.8 µM (inactive) | 17.9 µM (inactive) | 17.4 µM (inactive) | 14.6 µM (inactive) | 10.1 µM (inactive) | 23.7 µM (inactive) | 9.27 µM (inactive) | 14.3 µM (inactive) | 34.5 µM (inactive) | 21 µM (inactive) | 22.5 µM (inactive) | 32.5 µM (inactive) | 14.8 µM (inactive) | 15.4 µM (inactive)
COC(=O)C1CCC(=O)N1C(c1ccc2c(c1)OCO2)c1cc(OC)c(OC)c(OC)c1 (centres undefined) | > 100 µM (inactive) | > 100 µM (inactive) | > 100 µM (inactive) | > 100 µM (inactive) | > 100 µM (inactive) | > 100 µM (inactive) | > 100 µM (inactive) | > 100 µM (inactive) | > 100 µM (inactive) | > 100 µM (inactive) | 6.35 µM (inactive) | > 100 µM (inactive) | > 100 µM (inactive) | > 100 µM (inactive) | > 100 µM (inactive) | > 100 µM (inactive) | > 100 µM (inactive) | > 100 µM (inactive) | > 100 µM (inactive) | > 100 µM (inactive)
CCOC(=O)c1c(-c2ccccc2)c(C(OC(c2ccccc2)c2c(-c3ccccc3)c(C(=O)OCC)n3ccccc23)c2ccccc2)c2ccccn12 (centres undefined) | > 100 µM (inactive) | > 100 µM (inactive) | > 100 µM (inactive) | > 100 µM (inactive) | > 100 µM (inactive) | > 100 µM (inactive) | > 100 µM (inactive) | > 100 µM (inactive) | > 100 µM (inactive) | > 100 µM (inactive) | > 100 µM (inactive) | > 100 µM (inactive) | > 100 µM (inactive) | > 100 µM (inactive) | > 100 µM (inactive) | > 100 µM (inactive) | > 100 µM (inactive) | > 100 µM (inactive) | > 100 µM (inactive) | > 100 µM (inactive)
Cc1ccc2c(O)cc(-c3ccccc3)nc2n1 | 0.221 µM (active) | 0.0564 µM (active) | 0.0378 µM (active) | 0.366 µM (active) | 0.0378 µM (active) | 0.11 µM (active) | 0.116 µM (active) | 0.0867 µM (active) | 0.472 µM (active) | 0.313 µM (active) | 0.0532 µM (active) | 2.56 µM (inactive) | 0.115 µM (active) | 0.0585 µM (active) | 0.181 µM (active) | 0.105 µM (active) | 0.0664 µM (active) | 0.0389 µM (active) | 0.593 µM (active) | 0.222 µM (active)
